Values of other authors, collected in patent publication US7326683B2, “Treatment of membrane-associated diseases and disorders using lantibiotic containing compositions” (Molichem Medicines, Inc., priority 2004, dated 2008).

Assays:
[1] = system: clatharin-coated vesicle; settings: clatharin-coated vesicle acidification; Stone et al., J. Biol. Chem. 259: 2701-2703 (1984)
[2] = aspirin used after the sentinel event, atherosclerotic heart disease (ASHD)

## duramycin
[1]
  inhibition of the proton translocation facilitated by chloride translocation: up to 50%

## CC(=O)Oc1ccccc1C(=O)O [aspirin]
[2]
  decrease of risk of MI: approximately 50%
